Molecules are shown by their SMILES.

Usually IC50 stands for the concentration needed to halve the response being measured. A high value points to weaker potency in that assay.

For the first data set, the system named is MCF7. Put plainly: Cytotoxicity against human MCF7 cells after 48 hrs by MTT assay. It counts as functional, cell-based. To be noted: MCF7, 48 h. (Tetrazolium assays rely on reduction of a dye to a coloured formazan, in cell work by metabolically active cells.)
For the compound `CCN(CC)c1ccc2cc(C(=O)c3ccc(N4CCN(C(=O)c5ccccc5)CC4)cc3)oc2c1`, the IC50 was greater than 40 µM.

The compound `CCN(CC)c1ccc2cc(C(=O)c3ccc(N4CCN(C(=O)c5ccc(Cl)c(Cl)c5)CC4)cc3)oc2c1` came in with an IC50 of 8.08 µM.

As to `CCN(CC)c1ccc2cc(C(=O)c3ccc(N4CCN(S(=O)(=O)c5ccc(Br)c(F)c5)CC4)cc3)oc2c1`, 2.27 µM corresponded to half-maximal inhibition (IC50).

`CCN(CC)c1ccc2cc(C(=O)c3ccc(N4CCN(S(=O)(=O)c5ccc(F)cc5)CC4)cc3)oc2c1` returned an IC50 of 21.7 µM.

For the compound `CCN(CC)c1ccc2cc(C(=O)c3ccc(N4CCN(S(=O)(=O)c5ccc([N+](=O)[O-])cc5)CC4)cc3)oc2c1`, the IC50 is greater than 40 µM.

`CCN(CC)c1ccc2cc(C(=O)c3ccc(N4CCN(C(=O)c5cccc(C(F)(F)F)c5)CC4)cc3)oc2c1` showed an IC50 of 34.1 µM. That is a double-digit micromolar value.

In the case of `CCN(CC)c1ccc2cc(C(=O)c3ccc(N4CCN(C(C)=O)CC4)cc3)oc2c1`, the IC50 came out at 16.2 µM.

Turning to `CCN(CC)c1ccc2cc(C(=O)c3ccc(N4CCN(C(=O)c5ccc([N+](=O)[O-])c([N+](=O)[O-])c5)CC4)cc3)oc2c1`, inhibition was half-maximal at 19.6 µM (IC50).

On to `CCN(CC)c1ccc2cc(C(=O)c3ccc(N4CCN(C(=O)c5ccc(Br)cc5F)CC4)cc3)oc2c1`, for which the concentration for half-maximal inhibition (IC50) was greater than 40 µM.

`CCN(CC)c1ccc2cc(C(=O)c3ccc(N4CCN(S(=O)(=O)c5ccc(C)cc5)CC4)cc3)oc2c1`: the IC50 is greater than 40 µM.

Regarding `CCN(CC)c1ccc2cc(C(=O)c3ccc(N4CCN(S(C)(=O)=O)CC4)cc3)oc2c1`, the IC50 is greater than 40 µM.

For `CCN(CC)c1ccc2cc(C(=O)c3ccc(N4CCN(C(=O)c5ccccc5Cl)CC4)cc3)oc2c1`, the midpoint of inhibition, the IC50, lay at 26.3 µM.

`CCN(CC)c1ccc2cc(C(=O)c3ccc(N4CCN(S(=O)(=O)c5ccc(Br)cc5)CC4)cc3)oc2c1` gave an IC50 of 26.1 µM. This IC50 and that of the compound before are within 1.5-fold of each other.

In turn, `CCOC(=O)N1CCN(c2ccc(C(=O)c3cc4ccc(N(CC)CC)cc4o3)cc2)CC1` came in with an IC50 greater than 40 µM.

Take `CCN(CC)c1ccc2cc(C(=O)c3ccc(N4CCN(S(=O)(=O)c5ccc(C(F)(F)F)cc5)CC4)cc3)oc2c1`: the IC50 is greater than 40 µM.

Take `CCN(CC)c1ccc2cc(C(=O)c3ccc(N4CCN(C(=O)COc5ccc(Cl)cc5Cl)CC4)cc3)oc2c1`: half-maximal inhibition (IC50) required 12.4 µM.

A further data set concerns A549. Put plainly: Cytotoxicity against human A549 cells after 48 hrs by MTT assay. The data set is classed as functional, cell-based. To be noted: A549, 48 h.
Turning to `CCN(CC)c1ccc2cc(C(=O)c3ccc(N4CCN(C(=O)c5ccccc5)CC4)cc3)oc2c1`, the half-inhibitory concentration (IC50) is greater than 40 µM.

In turn, `CCN(CC)c1ccc2cc(C(=O)c3ccc(N4CCN(C(=O)c5ccc(Cl)c(Cl)c5)CC4)cc3)oc2c1` displayed an IC50 of 0.22 µM.

As for `CCN(CC)c1ccc2cc(C(=O)c3ccc(N4CCN(S(=O)(=O)c5ccc(Br)c(F)c5)CC4)cc3)oc2c1`, the IC50 amounted to 15.1 µM.

Regarding `CCN(CC)c1ccc2cc(C(=O)c3ccc(N4CCN(S(=O)(=O)c5ccc(F)cc5)CC4)cc3)oc2c1`, the IC50 turned out to be 16.4 µM.

Regarding `CCN(CC)c1ccc2cc(C(=O)c3ccc(N4CCN(S(=O)(=O)c5ccc([N+](=O)[O-])cc5)CC4)cc3)oc2c1`, the IC50 is 24.4 µM.

`CCN(CC)c1ccc2cc(C(=O)c3ccc(N4CCN(C(=O)c5cccc(C(F)(F)F)c5)CC4)cc3)oc2c1` gave an IC50 of 9.27 µM.

`CCN(CC)c1ccc2cc(C(=O)c3ccc(N4CCN(C(C)=O)CC4)cc3)oc2c1` registered an IC50 of 30.1 µM.

Consider `CCN(CC)c1ccc2cc(C(=O)c3ccc(N4CCN(C(=O)c5ccc([N+](=O)[O-])c([N+](=O)[O-])c5)CC4)cc3)oc2c1`, for which the IC50 is greater than 40 µM.

In the case of `CCN(CC)c1ccc2cc(C(=O)c3ccc(N4CCN(C(=O)c5ccc(Br)cc5F)CC4)cc3)oc2c1`, the 50% inhibitory concentration (IC50) worked out at 20.4 µM.

`CCN(CC)c1ccc2cc(C(=O)c3ccc(N4CCN(S(=O)(=O)c5ccc(C)cc5)CC4)cc3)oc2c1` came in with a 50% inhibitory concentration (IC50) greater than 40 µM.

Consider `CCN(CC)c1ccc2cc(C(=O)c3ccc(N4CCN(S(C)(=O)=O)CC4)cc3)oc2c1`, for which the IC50 was greater than 40 µM.

The compound `CCN(CC)c1ccc2cc(C(=O)c3ccc(N4CCN(C(=O)c5ccccc5Cl)CC4)cc3)oc2c1` displayed an IC50 of 6.11 µM.

Turning to `CCN(CC)c1ccc2cc(C(=O)c3ccc(N4CCN(S(=O)(=O)c5ccc(Br)cc5)CC4)cc3)oc2c1`, the IC50 came to 34.3 µM.

`CCOC(=O)N1CCN(c2ccc(C(=O)c3cc4ccc(N(CC)CC)cc4o3)cc2)CC1`: the IC50 is greater than 40 µM.

The compound `CCN(CC)c1ccc2cc(C(=O)c3ccc(N4CCN(S(=O)(=O)c5ccc(C(F)(F)F)cc5)CC4)cc3)oc2c1` displayed an IC50 of 11.1 µM.

As to `CCN(CC)c1ccc2cc(C(=O)c3ccc(N4CCN(C(=O)COc5ccc(Cl)cc5Cl)CC4)cc3)oc2c1`, inhibition was half-maximal at 5.73 µM (IC50).

Test system in a further data set: not listed separately
Put plainly: Cytotoxicity against human SGC7901 cells after 48 hrs by MTT assay. It counts as functional, cell-based. To be noted: SGC-7901, 48 h.
For `CCN(CC)c1ccc2cc(C(=O)c3ccc(N4CCN(C(=O)c5ccccc5)CC4)cc3)oc2c1`, the 50% inhibitory concentration (IC50) was greater than 40 µM.

Regarding `CCN(CC)c1ccc2cc(C(=O)c3ccc(N4CCN(C(=O)c5ccc(Cl)c(Cl)c5)CC4)cc3)oc2c1`, the IC50 stood at 5.84 µM.

Compound `CCN(CC)c1ccc2cc(C(=O)c3ccc(N4CCN(S(=O)(=O)c5ccc(Br)c(F)c5)CC4)cc3)oc2c1` gave an IC50 greater than 40 µM.

In the case of `CCN(CC)c1ccc2cc(C(=O)c3ccc(N4CCN(S(=O)(=O)c5ccc(F)cc5)CC4)cc3)oc2c1`, the half-maximal inhibitory concentration (IC50) is greater than 40 µM.

In turn, `CCN(CC)c1ccc2cc(C(=O)c3ccc(N4CCN(S(=O)(=O)c5ccc([N+](=O)[O-])cc5)CC4)cc3)oc2c1` came in with an IC50 of 1.86 µM.

In turn, `CCN(CC)c1ccc2cc(C(=O)c3ccc(N4CCN(C(=O)c5cccc(C(F)(F)F)c5)CC4)cc3)oc2c1` showed an IC50 of 11.3 µM.

As to `CCN(CC)c1ccc2cc(C(=O)c3ccc(N4CCN(C(C)=O)CC4)cc3)oc2c1`, half-maximal inhibition (IC50) was put at 25.6 µM.

Compound `CCN(CC)c1ccc2cc(C(=O)c3ccc(N4CCN(C(=O)c5ccc([N+](=O)[O-])c([N+](=O)[O-])c5)CC4)cc3)oc2c1` displayed an IC50 greater than 40 µM.

With `CCN(CC)c1ccc2cc(C(=O)c3ccc(N4CCN(C(=O)c5ccc(Br)cc5F)CC4)cc3)oc2c1`, the IC50 worked out at 13.5 µM. This lies in the double-digit micromolar range.

On to `CCN(CC)c1ccc2cc(C(=O)c3ccc(N4CCN(S(=O)(=O)c5ccc(C)cc5)CC4)cc3)oc2c1`, for which the IC50 was greater than 40 µM.

`CCN(CC)c1ccc2cc(C(=O)c3ccc(N4CCN(S(C)(=O)=O)CC4)cc3)oc2c1` had an IC50 greater than 40 µM.

`CCN(CC)c1ccc2cc(C(=O)c3ccc(N4CCN(C(=O)c5ccccc5Cl)CC4)cc3)oc2c1` came in with an IC50 of 12 µM.

As to `CCN(CC)c1ccc2cc(C(=O)c3ccc(N4CCN(S(=O)(=O)c5ccc(Br)cc5)CC4)cc3)oc2c1`, the IC50 was greater than 40 µM.

The compound `CCOC(=O)N1CCN(c2ccc(C(=O)c3cc4ccc(N(CC)CC)cc4o3)cc2)CC1` had a concentration for half-maximal inhibition (IC50) greater than 40 µM.

On to `CCN(CC)c1ccc2cc(C(=O)c3ccc(N4CCN(S(=O)(=O)c5ccc(C(F)(F)F)cc5)CC4)cc3)oc2c1`, for which the IC50 came out at 0.17 µM.

Consider `CCN(CC)c1ccc2cc(C(=O)c3ccc(N4CCN(C(=O)COc5ccc(Cl)cc5Cl)CC4)cc3)oc2c1`, for which the IC50 is 6.17 µM.

Test system in a further data set: not listed separately
Put plainly: Cytotoxicity against human L02 cells at <40 uM after 48 hrs by MTT assay. It counts as cell-based. Conditions: l02, 48 h.
In the case of `CCN(CC)c1ccc2cc(C(=O)c3ccc(N4CCN(C(=O)COc5ccc(Cl)cc5Cl)CC4)cc3)oc2c1`, the Activity entry is on record as “Non-toxic”.

The test system of another data set is HeLa. Put plainly: Cytotoxicity against human HeLa cells after 48 hrs by MTT assay.
Details: not given
It counts as functional, cell-based.
In turn, `CCN(CC)c1ccc2cc(C(=O)c3ccc(N4CCN(C(=O)c5ccccc5)CC4)cc3)oc2c1` showed an IC50 of 15.2 µM.

As to `CCN(CC)c1ccc2cc(C(=O)c3ccc(N4CCN(C(=O)c5ccc(Cl)c(Cl)c5)CC4)cc3)oc2c1`, the IC50 is 15.2 µM.

`CCN(CC)c1ccc2cc(C(=O)c3ccc(N4CCN(S(=O)(=O)c5ccc(Br)c(F)c5)CC4)cc3)oc2c1` showed a 50% inhibitory concentration (IC50) of 20.7 µM. The IC50 values of the last two compounds are within 1.5-fold of each other.

`CCN(CC)c1ccc2cc(C(=O)c3ccc(N4CCN(S(=O)(=O)c5ccc(F)cc5)CC4)cc3)oc2c1`: 21.6 µM corresponded to half-maximal inhibition (IC50).

Consider `CCN(CC)c1ccc2cc(C(=O)c3ccc(N4CCN(S(=O)(=O)c5ccc([N+](=O)[O-])cc5)CC4)cc3)oc2c1`, for which the IC50 was greater than 40 µM.

`CCN(CC)c1ccc2cc(C(=O)c3ccc(N4CCN(C(=O)c5cccc(C(F)(F)F)c5)CC4)cc3)oc2c1` returned an IC50 of 0.4 µM.

With `CCN(CC)c1ccc2cc(C(=O)c3ccc(N4CCN(C(C)=O)CC4)cc3)oc2c1`, the concentration for half-maximal inhibition (IC50) was found to be 5.15 µM.

For the compound `CCN(CC)c1ccc2cc(C(=O)c3ccc(N4CCN(C(=O)c5ccc([N+](=O)[O-])c([N+](=O)[O-])c5)CC4)cc3)oc2c1`, the IC50 worked out at 25.2 µM. Against the preceding compound, the IC50 is about 4.9-fold higher.

Compound `CCN(CC)c1ccc2cc(C(=O)c3ccc(N4CCN(C(=O)c5ccc(Br)cc5F)CC4)cc3)oc2c1` came in with a 50% inhibitory concentration (IC50) of 0.53 µM.

For `CCN(CC)c1ccc2cc(C(=O)c3ccc(N4CCN(S(=O)(=O)c5ccc(C)cc5)CC4)cc3)oc2c1`, it took 37.8 µM to reach half-maximal inhibition (IC50).

With `CCN(CC)c1ccc2cc(C(=O)c3ccc(N4CCN(S(C)(=O)=O)CC4)cc3)oc2c1`, the IC50 is greater than 40 µM.

`CCN(CC)c1ccc2cc(C(=O)c3ccc(N4CCN(C(=O)c5ccccc5Cl)CC4)cc3)oc2c1`: half-maximal inhibition (IC50) was put at 0.34 µM.

Compound `CCN(CC)c1ccc2cc(C(=O)c3ccc(N4CCN(S(=O)(=O)c5ccc(Br)cc5)CC4)cc3)oc2c1` displayed an IC50 greater than 40 µM.

For `CCOC(=O)N1CCN(c2ccc(C(=O)c3cc4ccc(N(CC)CC)cc4o3)cc2)CC1`, it took 20.3 µM to reach half-maximal inhibition (IC50).

Compound `CCN(CC)c1ccc2cc(C(=O)c3ccc(N4CCN(S(=O)(=O)c5ccc(C(F)(F)F)cc5)CC4)cc3)oc2c1` returned an IC50 of 9.72 µM.

On to `CCN(CC)c1ccc2cc(C(=O)c3ccc(N4CCN(C(=O)COc5ccc(Cl)cc5Cl)CC4)cc3)oc2c1`, for which the IC50 came to 0.03 µM.

These data come from ChEMBL document CHEMBL3822366, “Design, synthesis and anticancer activity of novel hybrid compounds between benzofuran and N-aryl piperazine” (Bioorg Med Chem Lett, 2016).
